Measurements from patent US7446199B2, “Compositions useful as inhibitors of protein kinases” (Vertex Pharmaceuticals Incorporated, priority 2003, dated 2008).

What was measured:
GSK-3β, (AA 1-420) = GSK-3β, (AA 1-420) (Homo sapiens, UniProt P49841); experiment: GSK-3 inhibition assay, coupled enzyme system; assay type: biochemical; conditions: 20 μM ATP, 300 μM peptide, 20 nM GSK-3b, 30° C.; read-out: Ki values (GSK3)
Description: Compounds of the present invention were screened for their ability to inhibit GSK-3β, (AA 1-420) activity using a standard coupled enzyme system (Fox et al., Protein Sci. 1998, 7, 2249). Reactions were carried out in a solution containing 100 mM HEPES (pH 7.5), 10 mM MgCl2, 25 mM NaCl, 300 μM NADH, 1 mM DTT and 1.5% DMSO. Final substrate concentrations in the assay were 20 μM ATP (Sigma Chemicals, St Louis, Mo.) and 300 μM peptide (American Peptide, Sunnyvale, Calif.). Reactions were carried out at 30° C. and 20 nM GSK-3b. Final concentrations of the components of the coupled enzyme system were 2.5 mM phosphoenolpyruvate, 300 μM NADH, 30 μg/ml pyruvate kinase and 10 μg/ml lactate dehydrogenase.
An assay stock buffer solution was prepared containing all of the reagents listed above with the exception of ATP and the test compound of the present invention. The assay stock buffer solution (175 μl) was incubated in a 96 well plate with 5 μl of the test compound of the present invention at final concentrations spanning 0.002 μM to 30 μM at 30° C. for 10 min. Typically, a 12 point titration was conducted by preparing serial dilutions (from 10 mM compound stocks) with DMSO of the test compounds of the present invention in daughter plates. The reaction was initiated by the addition of 20 μl of ATP (final concentration 20 μM). Rates of reaction were obtained using a Molecular Devices Spectramax plate reader (Sunnyvale, Calif.) over 10 min at 30° C. The Ki values were determined from the rate data as a function of inhibitor concentration.

FLT-3 = target: T1, FLT-3 (Homo sapiens, UniProt P36888); experiment: Inhibition of FLT-3, radiometric filter-binding assay; assay type: biochemical; conditions: 90 μM ATP, 0.5 mg/mL pE4Y, room temperature
T1 construct: 0.02% BSA and 3 nM FLT-3
T1 sequence (P36888 27-993): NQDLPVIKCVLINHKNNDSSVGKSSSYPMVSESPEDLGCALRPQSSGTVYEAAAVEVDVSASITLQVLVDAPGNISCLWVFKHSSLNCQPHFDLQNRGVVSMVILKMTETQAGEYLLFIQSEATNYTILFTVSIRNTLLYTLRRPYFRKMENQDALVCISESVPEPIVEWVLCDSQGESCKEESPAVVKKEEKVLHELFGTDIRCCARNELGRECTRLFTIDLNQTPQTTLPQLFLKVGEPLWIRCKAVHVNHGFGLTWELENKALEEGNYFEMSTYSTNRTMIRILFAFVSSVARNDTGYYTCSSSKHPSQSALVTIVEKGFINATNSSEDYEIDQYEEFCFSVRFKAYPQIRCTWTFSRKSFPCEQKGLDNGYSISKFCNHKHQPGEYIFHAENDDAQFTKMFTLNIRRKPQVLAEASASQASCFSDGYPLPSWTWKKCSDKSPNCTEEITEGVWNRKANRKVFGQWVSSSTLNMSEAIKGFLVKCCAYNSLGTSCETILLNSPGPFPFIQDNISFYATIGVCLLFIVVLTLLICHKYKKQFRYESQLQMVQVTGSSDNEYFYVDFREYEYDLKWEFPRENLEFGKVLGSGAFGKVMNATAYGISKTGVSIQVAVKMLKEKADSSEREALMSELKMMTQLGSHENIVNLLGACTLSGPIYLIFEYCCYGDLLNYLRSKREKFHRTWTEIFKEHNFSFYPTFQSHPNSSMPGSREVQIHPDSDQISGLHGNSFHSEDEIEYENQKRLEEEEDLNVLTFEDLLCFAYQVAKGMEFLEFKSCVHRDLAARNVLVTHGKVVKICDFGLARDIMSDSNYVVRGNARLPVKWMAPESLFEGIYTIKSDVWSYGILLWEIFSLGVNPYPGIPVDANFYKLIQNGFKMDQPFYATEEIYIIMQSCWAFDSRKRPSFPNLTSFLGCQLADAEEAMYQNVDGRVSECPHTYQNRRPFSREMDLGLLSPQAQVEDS
Description: Compounds were screened for their ability to inhibit FLT-3 activity using a radiometric filter-binding assay. This assay monitors the ^33P incorporation into a substrate poly(Glu, Tyr) 4:1 (pE4Y). Reactions were carried out in a solution containing 100 mM HEPES (pH 7.5), 10 mM MgCl2, 25 mM NaCl, 1 mM DTT, 0.01% BSA and 2.5% DMSO. Final substrate concentrations in the assay were 90 μM ATP and 0.5 mg/mL pE4Y (both from Sigma Chemicals, St Louis, Mo.). The final concentration of compounds is generally between 0.01 and 5 μM. Typically, a 12-point titration was conducted by preparing serial dilutions from 10 mM DMSO stock of test compound. Reactions were carried out at room temperature.
Two assay solutions were prepared. Solution 1 contains 100 mM HEPES (pH 7.5), 10 mM MgCl2, 25 mM NaCl, 1 mg/ml pE4Y and 180 μM ATP(containing 0.3 μCi of [γ-^33P]ATP for each reaction). Solution 2 contains 100 mM HEPES (pH 7.5), 10 mM MgCl2, 25 mM NaCl, 2 mM DTT, 0.02% BSA and 3 nM FLT-3. The assay was run on a 96 well plate by mixing 50 μL each of Solution 1 and […] of the test compounds. The reaction was initiated with Solution2. After incubation for 20 minutes at room temperature, the reaction was stopped with 50 μL of 20% TCA containing 0.4 mM of ATP. All of the reaction volume was then transferred to a filter plate and washed with 5% TCA by a Harvester9600 from TOMTEC (Hamden, Conn.). The amount of ^33P incorporation into pE4y was analyzed by a Packard TopCount Microplate Scintillation Counter (Meriden, Conn.). The data was fitted using Prism software to get an IC50 or Ki.

Chain of GSK-3β, (AA 1-420) (P49841 whole entry, the tested form may be a part): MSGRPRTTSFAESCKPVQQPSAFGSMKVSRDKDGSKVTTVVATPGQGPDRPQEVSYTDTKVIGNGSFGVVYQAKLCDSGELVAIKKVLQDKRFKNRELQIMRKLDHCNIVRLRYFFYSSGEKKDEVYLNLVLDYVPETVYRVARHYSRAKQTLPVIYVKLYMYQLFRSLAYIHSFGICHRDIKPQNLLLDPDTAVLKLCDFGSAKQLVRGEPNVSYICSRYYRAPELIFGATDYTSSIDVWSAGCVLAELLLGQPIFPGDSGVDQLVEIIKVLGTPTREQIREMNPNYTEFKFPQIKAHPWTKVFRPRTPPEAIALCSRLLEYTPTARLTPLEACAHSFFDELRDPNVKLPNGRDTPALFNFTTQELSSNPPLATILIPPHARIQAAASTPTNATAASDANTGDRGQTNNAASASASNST

Ki (GSK-3β, (AA 1-420)) [nM]	Ki (FLT-3) [nM]	Structure (SMILES)
1000 to 12500	1000 to 12500	Fc1c(Cl)cccc1-c1cnoc1-c1c[nH]c2ncccc12 [Compound 42, 3-[4-(3-Chloro-2-fluoro-phenyl)-isoxazol-5-yl]-1H-pyrrolo[2,3-b]pyridine]
< 200	200 to 1000	Fc1cccc(-n2cnnc2-c2c[nH]c3ncc(-c4ccc(CN5CCOCC5)cc4)cc23)c1F [Compound 109, 3-[4-(2,3-Difluoro-phenyl)-4H-[1,2,4]triazol-3-yl]-5-(4-morpholin-4-ylmethyl-phenyl)-1H-pyrrolo[2,3-b]pyridine]
200 to 1000	< 200	COc1cnc2[nH]cc(-c3oncc3-c3cccc(F)c3F)c2c1 [Compound 38, 3-[4-(2,3-Difluoro-phenyl)-isoxazol-5-yl]-5-methoxy-1H-pyrrolo[2,3-b]pyridine]
1000 to 12500	200 to 1000	c1cnc2[nH]cc(-c3oncc3C3CCCCC3)c2c1 [Compound 47, 3-(4-Cyclohexyl-isoxazol-5-yl)-1H-pyrrolo[2,3-b]pyridine]
200 to 1000	200 to 1000	CN(C)CC#Cc1cnc2[nH]cc(-c3oncc3-c3cccc(F)c3F)c2c1 [Compound 53, (3-{3-[4-(2,3-Difluoro-phenyl)-isoxazol-5-yl]-1H-pyrrolo[2,3-b]pyridin-5-yl}-prop-2-ynyl)-dimethyl-amine]
1000 to 12500	1000 to 12500	CN(C)c1ccnc(-c2cnc3[nH]cc(-c4oncc4-c4cccc(F)c4F)c3c2)c1 [Compound 80, (2-{3-[4-(2,3-Difluoro-phenyl)-isoxazol-5-yl]-1H-pyrrolo[2,3-b]pyridin-5-yl}-pyridin-4-yl)-dimethyl-amine]
200 to 1000		Fc1cccc(-c2cnoc2-c2c[nH]c3ncc(Br)cc23)c1F [Compound 37, 5-Bromo-3-[4-(2,3-difluoro-phenyl)-isoxazol-5-yl]-1H-pyrrolo[2,3-b]pyridine]
200 to 1000	200 to 1000	OC1CCN(c2ccc(-c3cnc4[nH]cc(-c5nncn5-c5cccc(F)c5F)c4c3)cn2)CC1 [Compound 116, 5′-{3-[4-(2,3-Difluoro-phenyl)-4H-[1,2,4]triazol-3-yl]-1H-pyrrolo[2,3-b]pyridin-5-yl}-3,4,5,6-tetrahydro-2H-[1,2′]bi-pyridinyl-4-ol]
200 to 1000	< 200	Fc1cccc(-c2cnoc2-c2c[nH]c3ncc(-c4cnc5[nH]ccc5c4)cc23)c1F [Compound 77, 3-[4-(2,3-Difluoro-phenyl)-isoxazol-5-yl]-1H,1′H-[5,5′]bi[pyrrolo[2,3-b]pyridinyl]]
< 200		CS(=O)(=O)n1ccc2cc(-c3cnc4[nH]cc(-c5oncc5-c5cccc(F)c5F)c4c3)cnc21 [Compound 97, 3′-[4-(2,3-Difluoro-phenyl)-isoxazol-5-yl]-1-methanesulfonyl-1H, 1′H-[5,5′]bi[pyrrolo[2,3-b]pyridinyl]]
< 200	< 200	CN1CCN(c2ccc(-c3cnc4[nH]cc(-c5oncc5-c5cccc(F)c5F)c4c3)cc2)CC1 [Compound 70, 3-[4-(2,3-Difluoro-phenyl)-isoxazol-5-yl]-5-[4-(4-methyl-piperazin-1-yl)-phenyl]-1H-pyrrolo[2,3-b]pyridine methanesulfonate]
< 200		Fc1cccc(-n2cnnc2-c2c[nH]c3ncc(-c4cccnc4)cc23)c1F [Compound 113, 3-[4-(2,3-Difluoro-phenyl)-4H-[1,2,4]triazol-3-yl]-5-pyridin-3-yl-1H-pyrrolo[2,3-b]pyridine]
200 to 1000		CN(C)c1ccc(-c2cnc3[nH]cc(-c4oncc4-c4cccc(F)c4F)c3c2)cc1 [Compound 88, (4-{3-[4-(2,3-Difluoro-phenyl)-isoxazol-5-yl]-1H-pyrrolo[2,3-b]pyridin-5-yl}-phenyl)-dimethyl-amine]
< 200		Fc1cccc(-n2cnnc2-c2c[nH]c3ncc(-c4ccncc4)cc23)c1F [Compound 114, 3-[4-(2,3-Difluoro-phenyl)-4H-[1,2,4]triazol-3-yl]-5-pyridin-4-yl-1H-pyrrolo[2,3-b]pyridine]
	200 to 1000	Fc1cccc(-c2cnoc2-c2c[nH]c3ncc(-c4ccccn4)cc23)c1F [Compound 73, 3-(4-(2,3-Difluoro-phenyl)-isoxazol-5-yl)-5-pyridin-2-yl-1H-pyrrolo[2,3-b]pyridine]
	1000 to 12500	Cn1ccc2c(-c3oncc3-c3cccc(F)c3F)c[nH]c2c1=O [Compound 144, 3-[4-(2,3-Difluoro-phenyl)-isoxazol-5-yl]-6-methyl-1,6-dihydro-pyrrolo[2,3-c]pyridin-7-one]
	1000 to 12500	CN(C)c1ccnc2[nH]cc(-c3oncc3-c3cccc(F)c3F)c12 [Compound 56, {3-[4-(2,3-Difluoro-phenyl)-isoxazol-5-yl]-1H-pyrrolo[2,3-b]pyridin-4-yl}-dimethyl-amine]
200 to 1000		O=c1[nH]ccc2c(-c3oncc3-c3cccc(F)c3F)c[nH]c12 [Compound 145, 3-[4-(2,3-Difluoro-phenyl)-isoxazol-5-yl]-1,6-dihydro-pyrrolo[2,3-c]pyridin-7-one]
	1000 to 12500	Nc1[nH]c2ncccc2c1-c1oncc1-c1cccc(F)c1F [Compound 152]
< 200		Cc1noc(-c2c[nH]c3ncc(-c4ccc(N5CCN(C)CC5)cc4)cc23)c1-c1cccc(F)c1F [Compound 135, 3-[4-(2,3-Difluoro-phenyl)-3-methyl-isoxazol-5-yl]-5-[4-(4-methyl-piperazin-1-yl)-phenyl]-1H-pyrrolo[2,3-b]pyridine]
	1000 to 12500	Fc1cccnc1-c1cnc2[nH]cc(-c3oncc3-c3cccc(F)c3F)c2c1 [Compound 74, 3-[4-(2,3-Difluoro-phenyl)-isoxazol-5-yl]-5-(3-fluoro-pyridin-2-yl)-1H-pyrrolo[2,3-b]pyridine]
1000 to 12500		Fc1ccc(-c2cnoc2-c2c[nH]c3ncccc23)c(F)c1F [Compound 40, 3-[4-(2,3,4-Trifluoro-phenyl)-isoxazol-5-yl]-1H-pyrrolo [2,3-b]pyridine]
< 200		O=c1ccc(-c2cnc3[nH]cc(-c4oncc4-c4cccc(F)c4F)c3c2)c[nH]1 [Compound 67, 5-{3-[4-(2,3-Difluoro-phenyl)-isoxazol-5-yl]-1H-pyrrolo [2,3-b]pyridin-5-yl}-1H-pyridin-2-one]
